Assay results as given in ChEMBL document CHEMBL1201862, “PubChem BioAssay data set” (2004).
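Method: 48-hour compound exposure of cells in 96-well plates, five concentrations, linear interpolation of endpoints. GI50 marks 50% less growth.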 Activity calls are given as the source filed them. Rule as the data show it: active = GI50 up to about 1.1 µM and inactive = higher.

Experiments:
Assay in all cases: DTP human tumour cell line panel, 48 h
[1] = tested on: SNB-75
[2] = tested on: SK-MEL-2
[3] = tested on: ACHN
[4] = tested on: NCI-H226
[5] = tested on: HL-60
[6] = tested on: SK-MEL-28
[7] = tested on: KM12
[8] = tested on: OVCAR-3
[9] = tested on: LOX IMVI
[10] = tested on: RXF 393
[11] = tested on: UACC-257
[12] = tested on: HCT-15
[13] = tested on: A549
[14] = tested on: SN12C
[15] = tested on: IGROV-1
[16] = tested on: NCI-H23
[17] = tested on: SF-268
[18] = tested on: SF-295
[19] = tested on: NCI-H460
[20] = tested on: SR

Compound: COC(=O)c1c(O)ccc2c1c1c(n2-c2ccc(OC)cc2)C(=O)c2ccccc2C1=O
- GI50 [1]: 23.9 µM (inactive)
- GI50 [2]: 26.1 µM (inactive)
- GI50 [3]: 12.8 µM (inactive)
- GI50 [4]: 25.5 µM (inactive)
- GI50 [5]: > 100 µM (inactive)
- GI50 [6]: 29.9 µM (inactive)
- GI50 [7]: 14.1 µM (inactive)
- GI50 [8]: 22.9 µM (inactive)
- GI50 [9]: 21.7 µM (inactive)
- GI50 [10]: 13 µM (inactive)
- GI50 [11]: 64.9 µM (inactive)
- GI50 [12]: 18.3 µM
- GI50 [13]: 10.1 µM (inactive)
- GI50 [14]: 28.9 µM (inactive)
- GI50 [15]: 16.6 µM (inactive)
- GI50 [16]: 36.7 µM (inactive)
- GI50 [17]: 14.8 µM (inactive)
- GI50 [18]: 18.7 µM (inactive)
- GI50 [19]: 5.04 µM (inactive)

Compound: COc1cc([C@@H]2c3cc4c(cc3[C@@H](NC(=O)c3cccc(C#N)c3)C3COC(=O)[C@@H]32)OCO4)cc(OC)c1O (stereo partly drawn)
- GI50 [1]: 0.433 µM (active)
- GI50 [2]: 3.55 µM (inactive)
- GI50 [3]: 0.182 µM (active)
- GI50 [4]: 0.0671 µM (active)
- GI50 [5]: 0.166 µM (active)
- GI50 [6]: 2.92 µM (inactive)
- GI50 [7]: 1.39 µM (inactive)
- GI50 [8]: 2.75 µM (inactive)
- GI50 [9]: 0.398 µM (active)
- GI50 [10]: 3.18 µM (inactive)
- GI50 [11]: 6.17 µM (inactive)
- GI50 [12]: 3.81 µM
- GI50 [13]: 0.0178 µM (active)
- GI50 [14]: 0.229 µM (active)
- GI50 [15]: 1.05 µM (active)
- GI50 [16]: 0.214 µM (active)
- GI50 [17]: 1.32 µM (inactive)
- GI50 [18]: 0.372 µM (active)
- GI50 [19]: < 0.01 µM (active)

Compound: COC(=O)NC1(NC(=O)OC)NC(=O)c2cc(OC)c(OC)c(OC)c2N1
- GI50 [1]: 13.7 µM (inactive)
- GI50 [2]: 0.0132 µM (active)
- GI50 [3]: 86.5 µM (inactive)
- GI50 [4]: 31.1 µM (inactive)
- GI50 [5]: 8.15 µM (inactive)
- GI50 [6]: 84.3 µM (inactive)
- GI50 [7]: 7.19 µM (inactive)
- GI50 [8]: 54.1 µM (inactive)
- GI50 [11]: > 100 µM (inactive)
- GI50 [12]: 8.49 µM
- GI50 [13]: < 0.01 µM (active)
- GI50 [14]: 41.6 µM (inactive)
- GI50 [15]: 53.1 µM (inactive)
- GI50 [16]: 32.7 µM (inactive)
- GI50 [17]: 28.1 µM (inactive)
- GI50 [20]: 17.3 µM (inactive)
- GI50 [18]: 12.4 µM (inactive)
- GI50 [19]: 17.2 µM (inactive)

Compound: CC1=NC(=Cc2ccc([N+](=O)[O-])cc2)C(=O)N1n1c(-c2ccccc2)nc2ccccc2c1=O
- GI50 [1]: 15.7 µM (inactive)
- GI50 [4]: 95.9 µM (inactive)
- GI50 [5]: 32.3 µM (inactive)
- GI50 [6]: 57.9 µM (inactive)
- GI50 [7]: 35.6 µM (inactive)
- GI50 [9]: 34.7 µM (inactive)
- GI50 [11]: 42.9 µM (inactive)
- GI50 [12]: 43.1 µM
- GI50 [13]: 47.1 µM (inactive)
- GI50 [14]: 52 µM (inactive)
- GI50 [15]: 53.6 µM (inactive)
- GI50 [16]: 21.8 µM (inactive)
- GI50 [17]: 37.8 µM (inactive)
- GI50 [20]: 35.2 µM (inactive)
- GI50 [18]: 52 µM (inactive)

Compound: CC(C)N(C(=O)C12CC3CC(CC(C3)C1)C2)C(C)C
- GI50 [1]: > 50 µM (inactive)
- GI50 [2]: > 50 µM (inactive)
- GI50 [3]: > 50 µM (inactive)
- GI50 [4]: > 50 µM (inactive)
- GI50 [5]: > 50 µM (inactive)
- GI50 [6]: > 50 µM (inactive)
- GI50 [7]: > 50 µM (inactive)
- GI50 [8]: > 50 µM (inactive)
- GI50 [9]: > 50 µM (inactive)
- GI50 [10]: > 50 µM (inactive)
- GI50 [11]: > 50 µM (inactive)
- GI50 [12]: > 50 µM
- GI50 [13]: > 50 µM (inactive)
- GI50 [14]: > 50 µM (inactive)
- GI50 [15]: > 50 µM (inactive)
- GI50 [16]: > 50 µM (inactive)
- GI50 [17]: > 50 µM (inactive)
- GI50 [18]: > 50 µM (inactive)
- GI50 [19]: > 50 µM (inactive)

Compound: CCC1=C(C)C(=O)N/C1=C\c1[nH]c(C)c([C@H](C)CCN)c1C
- GI50 [1]: 10.1 µM (inactive)
- GI50 [2]: 18.7 µM (inactive)
- GI50 [3]: 18.6 µM (inactive)
- GI50 [4]: 17.1 µM (inactive)
- GI50 [5]: 10 µM (inactive)
- GI50 [6]: 17.3 µM (inactive)
- GI50 [7]: 15.7 µM (inactive)
- GI50 [8]: 16 µM (inactive)
- GI50 [9]: 15.3 µM (inactive)
- GI50 [12]: 14.8 µM
- GI50 [13]: 16.1 µM (inactive)
- GI50 [14]: 16 µM (inactive)
- GI50 [15]: 17 µM (inactive)
- GI50 [16]: 13.3 µM (inactive)
- GI50 [17]: 16.2 µM (inactive)
- GI50 [20]: 50.6 µM (inactive)
- GI50 [18]: 16.5 µM (inactive)
- GI50 [19]: 20.3 µM (inactive)

Compound: COc1ccc(OC)c(CNc2ccc(C(=O)O)cc2)c1
- GI50 [1]: > 100 µM (inactive)
- GI50 [2]: > 100 µM (inactive)
- GI50 [3]: > 100 µM (inactive)
- GI50 [4]: > 100 µM (inactive)
- GI50 [5]: > 100 µM (inactive)
- GI50 [6]: > 100 µM (inactive)
- GI50 [7]: > 100 µM (inactive)
- GI50 [8]: > 100 µM (inactive)
- GI50 [9]: > 100 µM (inactive)
- GI50 [11]: > 100 µM (inactive)
- GI50 [12]: > 100 µM
- GI50 [13]: > 100 µM (inactive)
- GI50 [15]: > 100 µM (inactive)
- GI50 [16]: > 100 µM (inactive)
- GI50 [17]: > 100 µM (inactive)
- GI50 [20]: > 100 µM (inactive)

Compound: C=CCCON(C(=O)OC(C)(C)C)C(C)(C)C
- GI50 [1]: > 100 µM (inactive)
- GI50 [2]: > 100 µM (inactive)
- GI50 [3]: > 100 µM (inactive)
- GI50 [4]: > 100 µM (inactive)
- GI50 [5]: > 100 µM (inactive)
- GI50 [6]: > 100 µM (inactive)
- GI50 [7]: > 100 µM (inactive)
- GI50 [8]: > 100 µM (inactive)
- GI50 [9]: > 100 µM (inactive)
- GI50 [10]: > 100 µM (inactive)
- GI50 [11]: > 100 µM (inactive)
- GI50 [12]: > 100 µM
- GI50 [13]: > 100 µM (inactive)
- GI50 [14]: > 100 µM (inactive)
- GI50 [15]: > 100 µM (inactive)
- GI50 [16]: > 100 µM (inactive)
- GI50 [17]: > 100 µM (inactive)
- GI50 [18]: > 100 µM (inactive)
- GI50 [19]: > 100 µM (inactive)

Compound: Cc1ccc(CC(C)N)cc1 (stereo not drawn)
- GI50 [1]: > 100 µM (inactive)
- GI50 [2]: > 100 µM (inactive)
- GI50 [3]: > 100 µM (inactive)
- GI50 [4]: > 100 µM (inactive)
- GI50 [5]: > 100 µM (inactive)
- GI50 [6]: > 100 µM (inactive)
- GI50 [7]: > 100 µM (inactive)
- GI50 [8]: > 100 µM (inactive)
- GI50 [9]: > 100 µM (inactive)
- GI50 [10]: > 100 µM (inactive)
- GI50 [11]: > 100 µM (inactive)
- GI50 [12]: > 100 µM
- GI50 [13]: > 100 µM (inactive)
- GI50 [14]: > 100 µM (inactive)
- GI50 [15]: > 100 µM (inactive)
- GI50 [16]: > 100 µM (inactive)
- GI50 [17]: > 100 µM (inactive)
- GI50 [18]: > 100 µM (inactive)
- GI50 [19]: > 100 µM (inactive)

Compound: CC1CC/C(=C\c2ccc(Cl)cc2)c2nc(N)c(C#N)c(-c3ccc(Cl)cc3)c21 (stereo not drawn)
- GI50 [1]: 67 µM (inactive)
- GI50 [2]: 66.1 µM (inactive)
- GI50 [3]: 42.2 µM (inactive)
- GI50 [4]: 58.6 µM (inactive)
- GI50 [5]: 3.07 µM (inactive)
- GI50 [6]: 49.4 µM (inactive)
- GI50 [7]: 40.2 µM (inactive)
- GI50 [8]: 47.1 µM (inactive)
- GI50 [9]: > 100 µM (inactive)
- GI50 [11]: 32.9 µM (inactive)
- GI50 [12]: 8.47 µM
- GI50 [13]: 34.8 µM (inactive)
- GI50 [14]: > 100 µM (inactive)
- GI50 [15]: 62.8 µM (inactive)
- GI50 [16]: 30.3 µM (inactive)
- GI50 [20]: < 0.01 µM (active)
- GI50 [18]: 44.1 µM (inactive)

Compound: CN/C(=N\N=C1/C(=O)Nc2ccccc21)SCC(=O)c1ccc(Br)cc1
- GI50 [1]: 8.47 µM (inactive)
- GI50 [2]: 50 µM (inactive)
- GI50 [3]: 15.5 µM (inactive)
- GI50 [4]: 25.4 µM (inactive)
- GI50 [5]: 3.48 µM (inactive)
- GI50 [6]: 15 µM (inactive)
- GI50 [7]: 7.53 µM (inactive)
- GI50 [8]: 7.08 µM (inactive)
- GI50 [9]: 8.38 µM (inactive)
- GI50 [10]: 5.04 µM (inactive)
- GI50 [11]: 7.66 µM (inactive)
- GI50 [12]: 17.2 µM
- GI50 [13]: 5.01 µM (inactive)
- GI50 [14]: 12.5 µM (inactive)
- GI50 [15]: 31.1 µM (inactive)
- GI50 [16]: 15.6 µM (inactive)
- GI50 [17]: 18.6 µM (inactive)
- GI50 [18]: 18.7 µM (inactive)
- GI50 [19]: 10.2 µM (inactive)
